Laboratory results reported in patent US9873693B2 (Sunesis Pharmaceuticals, Inc., priority 2006, dated 2018).
Read-outs that look alike come from different tables or passages of the source.

Assays:
phosphorylated PDK1 = phosphorylated PDK1 (Homo sapiens (Human), UniProt O15530); assay: PDK1 kinase assay (coupled PDK1/AKT/FAM-crosstide, IMAP); format: biochemical; details: 0.5 nM phosphorylated PDK1, 24 μM ATP; read-out: Inhibition of phospo-PDK1 in vitro IC50
phospho-akt (Thr308) = phospho-akt (Thr308) MSD ELISA in PC-3 cells; format: cell-based; details: for inhibition at 1 µM / inhibition at 10 µM: read-out: Percent Inhibition of phospho-Akt (308) By MSD ELISA
Description: PC-3 cells were harvested by trypsin and counted. Cells were plated in coated 96-well flat bottom plates (plate 15,000 cells/well in 100 ul growth media (10% FBS, 1× pen-strep) an place in an incubator overnight.
Subject inhibitors were stocked at 50 mM, then diluted to 30 mM (4.8 μl cpd plus […] DMSO) in 100% DMSO. Three-fold dilutions were performed from 30 mM stock. (4 μl into 8 ul 100% DMSO). Aliquots of 1.0 μl of inhibitor solution were transferred into SF Medium (using deep well block).
Control wells were prepared as follows. For DMSO high controls, 1.0 μl of 100% DMSO was added into 1.0 ml SF.
MSD plates were blocked for 1 hour by adding 150 μl of Blocking Solution (3% BSA) to each well. The MSD plates were washed 4× with TBST, and 50 μl lysates were transferred to MSD plate and place on plate shaker shake at 4 degrees O/N, light shaking (speed 3.5). The plate was washed 4× with TBST.
25 μl of Ab detection solution was added to each well. The plate was sealed and incubated 1 hr RT, light shaking (speed 3.5). The plate was washed 4 times with TBST. 150 μl of Read Buffer was added (5 mls 4×MSD Read Buffer+15 mls water). Finally the plate was read immediately on the MSD plate reader.

[1] = Homo sapiens, PC-3, 2 h, PC-3 cells, 2 hours, no serum, read-out: Inhibition of P308 Akt in cells using MSD EC50
[2] = Homo sapiens, PC-3, 2 h, PC-3 cells, 2 hours, no serum, read-out: Reduction of Cellular Levels of Akt p308 By MSD ELISA (EC50 μM)
[3] = Homo sapiens, PC-3, 2 h, read-out: Inhibition of P308 Akt in cells using MSD EC50

Sequence of phosphorylated PDK1 (O15530 51-360): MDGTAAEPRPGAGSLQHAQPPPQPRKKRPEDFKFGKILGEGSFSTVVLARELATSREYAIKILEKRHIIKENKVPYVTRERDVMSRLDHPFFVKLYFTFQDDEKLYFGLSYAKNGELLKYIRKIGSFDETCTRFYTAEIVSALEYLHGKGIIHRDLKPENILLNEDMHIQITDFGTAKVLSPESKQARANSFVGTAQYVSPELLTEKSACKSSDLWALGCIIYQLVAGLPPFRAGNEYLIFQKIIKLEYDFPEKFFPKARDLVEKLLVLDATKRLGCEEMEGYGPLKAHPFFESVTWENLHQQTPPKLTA

NCc1cnc2[nH]cc(-c3cccc(CNC(=O)c4cccn(Cc5ccc(F)c(F)c5)c4=O)c3)c2c1 [Cpd 37]
IC50 (phosphorylated PDK1): < 0.5 µM | EC50 (phospho-akt (Thr308); PC-3 cells, 2 hours, no serum, read-out: Inhibition of P308 Akt in cells using MSD EC50): 1 to 5 µM

O=C1Nc2cc(/C=C/CNC(=O)c3cccn(Cc4cc(F)c(F)c(F)c4)c3=O)ccc2/C1=C/c1ncc[nH]1 [Cpd 195]
IC50 (phosphorylated PDK1): < 0.5 µM | EC50 (phospho-akt (Thr308); [1]): < 1 µM

O=C(NCc1noc(-c2c[nH]c3ncccc23)n1)c1cccn(Cc2ccc(Cl)c(Cl)c2)c1=O [Cpd 312]
IC50 (phosphorylated PDK1): < 0.5 µM | EC50 (phospho-akt (Thr308); [1]): 1 to 5 µM | inhibition at 1 µM (phospho-akt (Thr308); Homo sapiens, PC-3 cells): 25 to 75% | inhibition at 10 µM (phospho-akt (Thr308); Homo sapiens, PC-3 cells): > 75%

O=C(NCc1cccc(-c2c[nH]c3nccc(Cl)c23)c1)c1cccn(Cc2ccc(F)c(F)c2)c1=O [Cpd 50]
IC50 (phosphorylated PDK1): < 0.5 µM | EC50 (phospho-akt (Thr308); [1]): 1 to 5 µM

O=C(NCc1cccc(-c2c[nH]c3ncccc23)c1)c1cccn(Cc2ccc(Cl)c(Cl)c2)c1=O [Cpd 324]
IC50 (phosphorylated PDK1): < 0.5 µM | EC50 (phospho-akt (Thr308); [1]): > 5 µM | EC50 (phospho-akt (Thr308); [2]): > 5 µM

O=C(NCCCCc1c[nH]c2ncccc12)c1cccn(Cc2ccc(Cl)c(Cl)c2)c1=O [Cpd 269]
IC50 (phosphorylated PDK1): < 0.5 µM

O=C1Nc2cc(/C=C/CNC(=O)c3cccn(Cc4cc(F)c(F)c(F)c4)c3=O)ccc2/C1=C\c1cccnc1 [Cpd 194]
IC50 (phosphorylated PDK1): < 0.5 µM | EC50 (phospho-akt (Thr308); [1]): < 1 µM

CC(=O)Oc1ccc(C(COc2ccc3[nH]c(=O)[nH]c3c2)NC(=O)c2cccn(Cc3cc(F)c(F)c(F)c3)c2=O)cc1 (stereo not drawn) [Cpd 189]
IC50 (phosphorylated PDK1): < 0.5 µM | EC50 (phospho-akt (Thr308); [1]): < 1 µM

NS(=O)(=O)c1ccccc1-c1cccc(CNC(=O)c2cccn(Cc3ccc(F)c(F)c3)c2=O)c1 [Cpd 226]
IC50 (phosphorylated PDK1): > 10 µM

O=C(NC(COc1ccc2[nH]c(=O)[nH]c2c1)c1ccc(OCc2ccccc2)cc1)c1cccn(Cc2cc(F)c(F)c(F)c2)c1=O (stereo not drawn) [Cpd 186]
IC50 (phosphorylated PDK1): < 0.5 µM | EC50 (phospho-akt (Thr308); [3]): > 5 µM

CN(C)CCOc1cc(CNC(=O)c2cccn(Cc3ccc(F)c(F)c3)c2=O)cc(-c2c[nH]c3ncccc23)c1 [Cpd 60]
IC50 (phosphorylated PDK1): < 0.5 µM | EC50 (phospho-akt (Thr308); [1]): 1 to 5 µM

O=C1Nc2cc(/C=C/CNC(=O)c3cccn(Cc4cc(F)c(F)c(F)c4)c3=O)ccc2/C1=C/c1nccs1 [Cpd 203]
IC50 (phosphorylated PDK1): < 0.5 µM | EC50 (phospho-akt (Thr308); [1]): 1 to 5 µM

O=C(NCc1cc(-c2c[nH]c3ncccc23)cc(C(F)F)n1)c1cccn(Cc2ccc(F)c(F)c2)c1=O [Cpd 208]
IC50 (phosphorylated PDK1): < 0.5 µM | EC50 (phospho-akt (Thr308); [1]): < 1 µM

NS(=O)(=O)c1cccc(-c2cccc(CNC(=O)c3cccn(Cc4ccc(F)c(F)c4)c3=O)c2)c1 [Cpd 227]
IC50 (phosphorylated PDK1): > 10 µM

O=C1Nc2cc(/C=C/CNC(=O)c3cccn(Cc4cc(F)c(F)c(F)c4)c3=O)ccc2/C1=C/c1cccs1 [Cpd 198]
IC50 (phosphorylated PDK1): < 0.5 µM | EC50 (phospho-akt (Thr308); [1]): 1 to 5 µM

Nc1ncc(-c2cccc(CNC(=O)c3cccn(Cc4ccc(F)c(F)c4)c3=O)c2)cn1 [Cpd 215]
IC50 (phosphorylated PDK1): > 10 µM

O=C(NCc1cccc(-c2c[nH]c3ncccc23)n1)c1cccn(Cc2ccc(F)c(F)c2)c1=O [Cpd 4]
IC50 (phosphorylated PDK1): < 0.5 µM | EC50 (phospho-akt (Thr308); [1]): 1 to 5 µM | inhibition at 1 µM (phospho-akt (Thr308); Homo sapiens, PC-3 cells): 25 to 75% | inhibition at 10 µM (phospho-akt (Thr308); Homo sapiens, PC-3 cells): > 75%

O=C(NCc1cccc(-c2c[nH]c3ncc(CO)cc23)c1)c1cccn(Cc2ccc(F)c(F)c2)c1=O [Cpd 8]
IC50 (phosphorylated PDK1): < 0.5 µM

O=C(N[C@@H](/C=C/c1ccc2[nH]c(=O)[nH]c2c1)c1ccccc1)c1cccn(Cc2cc(F)c(F)c(F)c2)c1=O [Cpd 183]
IC50 (phosphorylated PDK1): < 0.5 µM | EC50 (phospho-akt (Thr308); [3]): 1 to 5 µM

O=C(NCc1cccc(-c2c[nH]c3ncc(-c4nnn[nH]4)cc23)c1)c1cccn(Cc2ccc(F)c(F)c2)c1=O [Cpd 246]
IC50 (phosphorylated PDK1): < 0.5 µM

O=C(NCC1CCC(c2c[nH]c3ncccc23)CC1)c1cccn(Cc2ccc(F)c(F)c2)c1=O (stereo not drawn) [Cpd 223]
IC50 (phosphorylated PDK1): > 10 µM

O=C(NCC12CC3CC(C1)CC(c1c[nH]c4ncccc14)(C3)C2)c1cccn(Cc2ccc(F)c(F)c2)c1=O [Cpd 327]
IC50 (phosphorylated PDK1): 0.5 to 10 µM

O=C(N[C@@H](COc1cc2[nH]c(=O)[nH]c2cn1)c1ccccc1)c1cccn(Cc2cc(F)c(F)c(F)c2)c1=O [Cpd 176]
IC50 (phosphorylated PDK1): < 0.5 µM

O=C(NCCCCc1c[nH]c2ncccc12)c1cc(Cl)cn(Cc2ccc(Cl)cc2)c1=O [Cpd 268]
IC50 (phosphorylated PDK1): < 0.5 µM

COc1ccnc(NCCC#CCCNC(=O)c2cccn(Cc3cccc(Cl)c3)c2=O)n1 [Cpd 250]
IC50 (phosphorylated PDK1): 0.5 to 10 µM

O=C(NCCCc1ccc2[nH]c(=O)[nH]c2c1)c1cccn(Cc2ccc(F)c(F)c2)c1=O [Cpd 161]
IC50 (phosphorylated PDK1): < 0.5 µM

O=C(Nc1cccc(C(=O)c2c[nH]c3ncccc23)c1)c1cccn(Cc2ccc(F)c(F)c2)c1=O [Cpd 127]
IC50 (phosphorylated PDK1): < 0.5 µM

O=C(O)COc1cc(CNC(=O)c2cccn(Cc3ccc(F)c(F)c3)c2=O)cc(-c2c[nH]c3ncccc23)c1 [Cpd 61]
IC50 (phosphorylated PDK1): < 0.5 µM

Cn1ccnc1/C=C1/C(=O)Nc2cc(/C=C/CNC(=O)c3cccn(Cc4cc(F)c(F)c(F)c4)c3=O)ccc21 [Cpd 210]
IC50 (phosphorylated PDK1): < 0.5 µM

O=C(NCc1cc(-c2c[nH]c3ncccc23)ncn1)c1cccn(Cc2ccc(F)c(F)c2)c1=O [Cpd 149]
IC50 (phosphorylated PDK1): < 0.5 µM

O=C(O)c1cnc2[nH]cc(-c3cccc(CNC(=O)c4cccn(-c5cccc(F)c5F)c4=O)c3)c2c1 [Cpd 238]
IC50 (phosphorylated PDK1): < 0.5 µM

O=C(c1cccn(Cc2ccc(F)c(F)c2)c1=O)N1CCN(C(=O)c2c[nH]c3ncccc23)CC1 [Cpd 233]
IC50 (phosphorylated PDK1): > 10 µM

O=C(N[C@H]1CC[C@H](c2c[nH]c3ncccc32)CC1)c1cccn(Cc2ccc(F)c(F)c2)c1=O [Cpd 337]
IC50 (phosphorylated PDK1): > 10 µM

COc1ccnc(NCCCCCNC(=O)c2cccn(Cc3ccc(Cl)c(Cl)c3)c2=O)n1 [Cpd 251]
IC50 (phosphorylated PDK1): 0.5 to 10 µM

O=C(Nc1cccc(C(=O)c2c[nH]c3ccccc23)c1)c1cccn(Cc2ccc(F)c(F)c2)c1=O [Cpd 221]
IC50 (phosphorylated PDK1): > 10 µM

O=C(NCCCCCCc1c[nH]c2ncccc12)c1cccn(Cc2ccc(F)c(F)c2)c1=O [Cpd 338]
IC50 (phosphorylated PDK1): < 0.5 µM

O=C1Cc2ccc(OCCNC(=O)c3cccn(Cc4cc(F)c(F)c(F)c4)c3=O)cc2N1 [Cpd 207]
IC50 (phosphorylated PDK1): < 0.5 µM

CN1CCC(=C2C(=O)Nc3cc(/C=C/CNC(=O)c4cccn(Cc5cc(F)c(F)c(F)c5)c4=O)ccc32)CC1 [Cpd 211]
IC50 (phosphorylated PDK1): < 0.5 µM

NS(=O)(=O)c1ccc(-c2cccc(CNC(=O)c3cccn(Cc4ccc(F)c(F)c4)c3=O)c2)cc1 [Cpd 228]
IC50 (phosphorylated PDK1): > 10 µM

O=C(Nc1cccc(C(=O)n2ccc3ncccc32)c1)c1cccn(Cc2ccc(F)c(F)c2)c1=O [Cpd 229]
IC50 (phosphorylated PDK1): > 10 µM

Cn1nc(NC(=O)c2cccn(Cc3ccc(F)c(F)c3)c2=O)c2cc(-c3c[nH]c4ncccc34)ccc21 [Cpd 87]
EC50 (phospho-akt (Thr308); [1]): < 1 µM

O=C(NCc1noc(-c2c[nH]c3ncccc23)n1)c1cccn(Cc2ccc(F)c(F)c2)c1=O [Cpd 129]
inhibition at 1 µM (phospho-akt (Thr308); Homo sapiens, PC-3 cells): < 25% | inhibition at 10 µM (phospho-akt (Thr308); Homo sapiens, PC-3 cells): < 25%

O=C(NCc1cc(OC2CCCCC2)cc(-c2c[nH]c3ncccc23)c1)c1cccn(Cc2ccc(F)c(F)c2)c1=O [Cpd 84]
EC50 (phospho-akt (Thr308); [1]): > 5 µM

O=C(NCCOc1ccc2[nH]c(=O)[nH]c2c1F)c1cccn(Cc2ccc(F)c(F)c2)c1=O [Cpd 169]
EC50 (phospho-akt (Thr308); [1]): 1 to 5 µM

O=C(NCc1cccc(-c2c[nH]c3nccc(F)c23)c1)c1cccn(Cc2ccc(F)c(F)c2)c1=O [Cpd 74]
EC50 (phospho-akt (Thr308); [1]): 1 to 5 µM

O=C(NCc1cc(OC2CCNCC2)cc(-c2c[nH]c3ncccc23)c1)c1cccn(Cc2ccc(F)c(F)c2)c1=O [Cpd 67]
EC50 (phospho-akt (Thr308); [1]): < 1 µM

C[C@H](COc1ccc2[nH]c(=O)[nH]c2c1)NC(=O)c1cccn(Cc2cc(F)c(F)c(F)c2)c1=O [Cpd 173]
EC50 (phospho-akt (Thr308); [1]): 1 to 5 µM

O=C(NCc1cccc(-c2c[nH]c3ncc(-c4nnn[nH]4)cc23)c1)c1cccn(Cc2ccc(F)c(F)c2)c1=O [Cpd 43]
EC50 (phospho-akt (Thr308); [2]): > 5 µM

O=C(O)c1cc(-c2c[nH]c3ncccc23)cc(CNC(=O)c2cccn(Cc3ccc(F)c(F)c3)c2=O)n1 [Cpd 172]
EC50 (phospho-akt (Thr308); [1]): > 5 µM

O=C(NCc1coc(-c2c[nH]c3ncccc23)n1)c1cccn(Cc2ccc(F)c(F)c2)c1=O [Cpd 131]
EC50 (phospho-akt (Thr308); [1]): 1 to 5 µM | EC50 (phospho-akt (Thr308); [2]): 1 to 5 µM

O=C(N[C@@H](COc1ccc2[nH]c(=O)[nH]c2c1)C(=O)O)c1cccn(Cc2cc(F)c(F)c(F)c2)c1=O [Cpd 154]
IC50 (phosphorylated PDK1): < 0.5 µM
